Measurements reported in patent US6455554B1, “Oxopyridinyl pharmaceutical compositions and methods for use” (Targacept, Inc., priority 1999, dated 2002).
Several values for one entry are separate records, joined by “and”; a condition that tells them apart may be missing. Equal values may be shown once.

Assays:
[1] = system: ganglionic-type nicotinic acetylcholine receptors; test: Determination of interaction with ganglion receptors; assay type: cell-based; conditions: at a concentration of 100 uM; relative to (S)-(-)-nicotine
From the text: By this is meant that a particular dose of compound resulting in prevention and/or treatment of a CNS disorder, is essentially ineffective in eliciting activation of certain ganglionic-type nicotinic receptors. […] As such, such compounds have poor ability to cause isotopic rubidium ion flux through nicotinic receptors in cell preparations derived from the adrenal gland. Generally, typical preferred compounds useful in carrying out the present invention activate isotopic rubidium ion flux by less than 10 percent, often by less than 5 percent, of that maximally provided by S(−) nicotine.
Determination of Interaction with Ganglion Receptors
(§1) The determination of the interaction of the compounds with ganglionic receptors was carried out in accordance with the techniques described in U.S. Pat. No. 5,597,919 to Dull et al. The maximal activation for individual compounds (Emax) was determined as a percentage of the maximal activation induced by (S)-(−)-nicotine. Reported Emax values represent the amount released relative to (S)-(−)-nicotine on a percentage basis.

[2] = target: T1, muscle-type nicotinic acetylcholine receptors (Homo sapiens, UniProt P02708+P07510+Q07001); test: Determination of interaction with muscle receptors; assay type: cell-based; set-up: Emax: dose or concentration left out as unconfirmed; conditions: for Emax: read-out: Emax at muscle-type receptors
T1 construct: cell preparations expressing muscle-type nicotinic acetylcholine receptors; endogenous in cells
From the text: The compounds of the present invention, when employed in effective amounts in accordance with the method of the present invention, lack the ability to elicit activation of nicotinic receptors of human muscle to any significant degree. […] Generally, typical preferred compounds useful in carrying the present invention activate isotopic rubidium ion flux by less than 10 percent, often by less than 5 percent, of that maximally provided by S(−) nicotine.
Determination of Interaction with Muscle Receptors
as §1, with “muscle” for “ganglionic”

[3] = system: Rat brain synaptosomes; test: Neurotransmitter release from brain synaptosomes; assay type: cell-based; conditions: 10 M of ligand, percentage of release with 10 M (S)-(-)-nicotine or 300 MTMA
Description: Neurotransmitter Release from Brain Synaotosomes
Neurotransmitter release was measured using techniques similar to those previously published (Bencherif M, et al.:. JPET 279: 1413-1421, 1996).
Rat brain synaptosomes were prepared as follows: Female Sprague Dawley rats (100-200 g) were killed by decapitation after anesthesia with 70% CO2. Brains are dissected, and hippocampus, striatum, and thalamus isolated, and homogenized in 0.32 M sucrose containing 5 mM HEPES pH 7.4 using a glass/glass homogenizer. The tissue was then centrifuged for 1000×g for 10 minutes and the pellet discarded. The supernatant was centrifuged at 12000×g for 20 minutes. The resultant pellet was re-suspended in perfusion buffer (128 mM NaCl, 1.2 mM KH2PO4, 2.4 mM KCl, 3.2 mM CaCl2, 1.2 mM MgSO4, 25 mM HEPES, 1 mM Ascorbic acid, 0.01 mM pargyline HCl and 10 mM glucose pH 7.4) and centrifuged for 15 minutes at 25000×g. The final pellet was resuspended in perfusion buffer and placed in a water bath (37° C.) for 10 minutes. Radiolabeled neurotransmitter is added (30 L ^3H DA, 20 L ^3H NE, 10 L ^3H glutamate) to achieve a final concentration of 100 nM, vortexed and placed in a water bath for additional 10 minutes. Tissue-loaded filters is placed onto 11-mm diameter Gelman A/E filters on an open-air support. After a 10-minute wash period, fractions are collected to establish the basal release and agonist applied in the perfusion stream. Further fractions were collected after agonist application to re-establish the baseline. The perfusate was collected directly into scintillation vials and released radioactivity was quantified using conventional liquid scintillation techniques. Release of neurotransmitter was determined in the presence of […] of various ligands and was expressed as a percentage of release obtained with a concentration of 10 M (S)-(−)-nicotine or 300 MTMA resulting in maximal effects.

[4] = target: CNS nicotinic receptors (Rattus norvegicus, UniProt P09483+P12390); test: Determination of binding to relevant receptor sites; conditions: inhibition constants calculated from IC50 values by the method of Cheng et al.
Description: Determination of Binding to Relevant Receptor Sites
Binding of the compounds to relevant receptor sites was determined in accordance with the techniques described in U.S. Pat. No. 5,597,919 to Dull et al. Inhibition constants (Ki values), reported in nM, were calculated from the IC50 values using the method of Cheng et al., Biochem, Pharmacol. 22:3099 (1973).

[5] = system: nicotinic cholinergic receptors that modulate dopamine release; test: Determination of dopamine release; assay type: cell-based
Description: Determination of Dopamine Release
Dopamine release was measured using the techniques described in U.S. Pat. No. 5,597,919 to Dull et al. Release is expressed as a percentage of release obtained with a concentration of (S)-(−)-nicotine resulting in maximal effects. Reported EC50 values are expressed in nM, and Emax values represent the amount released relative to (S)-(−)-nicotine on a percentage basis.

[6] = target: nicotinic receptors; test: Determination of rubidium ion release (rubidium ion flux assay); assay type: cell-based
Description: Determination of Rubidium Ion Release
Rubidium release was measured using the techniques described in Bencherif et al., JPET, 279: 1413-1421 (1996). Reported EC50 values are expressed in nM, and Emax values represent the amount of rubidium ion released relative to 300 uM tetramethylammonium ion, on a percentage basis.

[7] = at a concentration of 100 uM, relative to (S)-(-)-nicotine
[8] = amount released relative to (S)-(-)-nicotine
[9] = rubidium ion released relative to 300 uM tetramethylammonium ion

T1 sequence (P02708 21-457): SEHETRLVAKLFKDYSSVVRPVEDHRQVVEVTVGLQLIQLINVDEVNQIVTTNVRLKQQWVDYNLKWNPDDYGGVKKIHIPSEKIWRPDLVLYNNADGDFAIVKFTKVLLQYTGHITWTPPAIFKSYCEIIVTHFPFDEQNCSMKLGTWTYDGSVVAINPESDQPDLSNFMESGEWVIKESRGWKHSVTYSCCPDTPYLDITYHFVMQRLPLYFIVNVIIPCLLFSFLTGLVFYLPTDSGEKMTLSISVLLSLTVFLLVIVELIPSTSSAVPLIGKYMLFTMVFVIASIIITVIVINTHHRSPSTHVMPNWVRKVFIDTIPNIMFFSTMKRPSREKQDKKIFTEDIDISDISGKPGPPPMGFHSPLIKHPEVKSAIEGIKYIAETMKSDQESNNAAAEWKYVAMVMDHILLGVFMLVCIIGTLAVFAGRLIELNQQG
T1 sequence (P11230 24-501 partner): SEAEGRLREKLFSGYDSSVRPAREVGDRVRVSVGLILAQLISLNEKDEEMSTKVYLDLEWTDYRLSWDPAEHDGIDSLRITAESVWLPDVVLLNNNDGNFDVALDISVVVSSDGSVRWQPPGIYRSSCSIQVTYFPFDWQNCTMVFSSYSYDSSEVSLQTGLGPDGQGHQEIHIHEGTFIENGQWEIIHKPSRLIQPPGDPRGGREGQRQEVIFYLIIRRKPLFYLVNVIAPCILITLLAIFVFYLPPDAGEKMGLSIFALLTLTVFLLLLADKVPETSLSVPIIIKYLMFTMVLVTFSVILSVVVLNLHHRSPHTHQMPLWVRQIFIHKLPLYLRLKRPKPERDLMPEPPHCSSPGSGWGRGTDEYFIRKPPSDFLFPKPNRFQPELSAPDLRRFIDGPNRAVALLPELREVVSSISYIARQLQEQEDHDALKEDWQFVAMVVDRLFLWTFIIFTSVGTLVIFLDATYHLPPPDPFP
T1 sequence (Q07001 22-517): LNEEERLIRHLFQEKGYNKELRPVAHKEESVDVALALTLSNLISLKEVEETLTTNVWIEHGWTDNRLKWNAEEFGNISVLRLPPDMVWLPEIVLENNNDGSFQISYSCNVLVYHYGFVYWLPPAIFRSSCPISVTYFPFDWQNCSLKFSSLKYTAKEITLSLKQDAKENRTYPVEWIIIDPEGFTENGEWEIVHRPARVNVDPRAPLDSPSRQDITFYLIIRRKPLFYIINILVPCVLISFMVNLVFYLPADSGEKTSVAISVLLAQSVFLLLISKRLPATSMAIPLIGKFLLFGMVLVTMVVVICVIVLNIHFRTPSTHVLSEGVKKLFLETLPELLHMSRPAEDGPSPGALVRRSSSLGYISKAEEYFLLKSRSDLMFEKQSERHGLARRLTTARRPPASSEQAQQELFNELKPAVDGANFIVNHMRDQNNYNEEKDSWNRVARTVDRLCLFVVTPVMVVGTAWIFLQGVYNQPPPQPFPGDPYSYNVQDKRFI
T1 sequence (P07510 23-517): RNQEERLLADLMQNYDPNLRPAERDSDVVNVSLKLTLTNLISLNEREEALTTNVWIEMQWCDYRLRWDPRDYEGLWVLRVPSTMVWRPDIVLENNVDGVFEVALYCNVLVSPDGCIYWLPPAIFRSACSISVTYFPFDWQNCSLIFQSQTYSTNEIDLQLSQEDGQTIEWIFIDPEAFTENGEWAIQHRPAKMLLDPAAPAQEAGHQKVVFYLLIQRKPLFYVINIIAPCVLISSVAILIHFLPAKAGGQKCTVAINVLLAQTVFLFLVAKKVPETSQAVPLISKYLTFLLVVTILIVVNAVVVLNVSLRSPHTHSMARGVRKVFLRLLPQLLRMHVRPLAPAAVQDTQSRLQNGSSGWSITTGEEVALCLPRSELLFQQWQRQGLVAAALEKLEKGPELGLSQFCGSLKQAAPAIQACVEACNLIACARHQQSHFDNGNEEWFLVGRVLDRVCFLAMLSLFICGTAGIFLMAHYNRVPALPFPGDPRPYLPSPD
Chain of CNS nicotinic receptors (P09483 31-630): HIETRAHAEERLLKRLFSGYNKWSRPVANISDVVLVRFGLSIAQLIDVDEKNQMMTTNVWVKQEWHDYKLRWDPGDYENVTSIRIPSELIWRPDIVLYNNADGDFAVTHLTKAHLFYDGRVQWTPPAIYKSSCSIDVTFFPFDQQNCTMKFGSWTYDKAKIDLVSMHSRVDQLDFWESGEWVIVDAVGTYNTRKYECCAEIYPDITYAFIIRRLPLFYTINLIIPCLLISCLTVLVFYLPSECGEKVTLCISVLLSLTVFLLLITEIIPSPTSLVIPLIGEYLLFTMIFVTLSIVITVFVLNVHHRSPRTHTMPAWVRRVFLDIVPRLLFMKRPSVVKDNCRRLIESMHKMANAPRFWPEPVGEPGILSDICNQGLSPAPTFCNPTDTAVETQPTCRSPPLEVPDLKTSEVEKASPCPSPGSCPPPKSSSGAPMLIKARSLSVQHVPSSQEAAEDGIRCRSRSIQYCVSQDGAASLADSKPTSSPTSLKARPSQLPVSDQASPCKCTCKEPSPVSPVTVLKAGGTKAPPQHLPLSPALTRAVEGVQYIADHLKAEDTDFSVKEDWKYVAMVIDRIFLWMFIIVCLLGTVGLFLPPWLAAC
Chain of CNS nicotinic receptors (P12390 25-500): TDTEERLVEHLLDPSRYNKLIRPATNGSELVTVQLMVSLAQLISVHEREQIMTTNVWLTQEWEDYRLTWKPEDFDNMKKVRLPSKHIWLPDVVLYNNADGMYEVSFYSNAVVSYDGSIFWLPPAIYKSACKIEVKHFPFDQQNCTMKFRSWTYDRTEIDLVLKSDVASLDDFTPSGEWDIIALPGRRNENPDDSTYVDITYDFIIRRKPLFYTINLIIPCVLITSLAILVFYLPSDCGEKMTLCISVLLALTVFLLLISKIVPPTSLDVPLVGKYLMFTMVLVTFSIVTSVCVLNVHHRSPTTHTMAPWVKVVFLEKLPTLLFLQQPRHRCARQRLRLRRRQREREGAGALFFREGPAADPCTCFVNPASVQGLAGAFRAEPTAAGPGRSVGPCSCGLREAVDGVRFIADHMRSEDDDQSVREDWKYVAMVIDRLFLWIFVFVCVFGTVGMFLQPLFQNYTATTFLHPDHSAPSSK

SMILES | Emax at ganglionic-type receptors [1] | EC50 [6] | EC50 [5] | Emax [5, 8] | Emax [2] | Emax [3] | Emax [6, 9] | other results
CNCC/C=C/c1cnc(N)c([N+](=O)[O-])c1 [Sample No. 1, (3E)-N-methyl-4-[3-(5-nitro-6-aminopyridin)yl]-3-buten-1-amine] | 11% and 16% | 26 µM | – | – | – | – | – | Emax at muscle-type receptors [2, 7]: 10% and 11%; neurotransmitter release Emax [3]: 33%; Ki [4]: 0.003 µM; Emax for dopamine release [5, 8]: 0%; Emax in the rubidium ion flux assay [6, 9]: 22%
CNCC/C=C/c1cncc(C(=O)NCc2ccccc2)c1 [Sample No. 2, (3E)-N-methyl-N-[3-(5-(N-benzylcarboxamido)pyridin)yl]-3-buten-1-amine] | – | – | 100 µM | 12% | – | – | – | –
CN[C@@H](C)C/C=C/c1cc(OC(C)C)c[n+]([O-])c1 [Sample No. 5] | 8% | – | – | – | 7% | 19% | – | –
CNCC/C=C/c1cncc(OCC(C)C)c1 [Sample No. 6, (3E)-N-methyl-4-(3-(5-isobutoxypyridin)yl)-3-buten-1-amine hemigalactarate] | 13% | 1 µM | 15 µM | 25% | 6% | – | 15% | –
CNC(C)CC=Cc1ccc[n+]([O-])c1 (centres unmarked) [Sample No. 8, (4E)-N-methyl-5-(3-(1-oxopyridin)yl)-4-penten-2-amine] | 8% | – | – | – | 0% | 9% | – | –
CCSc1cncc(/C=C/CCNC)c1 [Sample No. 9, (3E)-N-methyl-4-(3-(5-ethylthiopyridin)yl)-3-buten-1-amine hemigalactarate] | 22% | 0.191 µM | 0.875 µM | 39% | 7% | – | 40% | –
CNC(C)CC=Cc1cncc(C(F)(F)F)c1 (centres unmarked) [Sample No. 10, (4E)-N-methyl-5-(3-(5-trifluoromethylpyridin)yl)-4-penten-2-amine] | 0% | 100 µM | – | – | 0% | 50% | 0% | –
CC(N)CC=Cc1cncc(OC(C)C)c1 (centres unmarked) [Sample No. 12, (4E)-5-(3-(5-isopropoxypyridin)yl)-4-penten-2-amine hemigalactarate] | 5% | – | – | – | – | 32% | – | Emax at 100 µM [2, 7]: 13%
CNC(C)CC=Cc1cncc(O)c1 (centres unmarked) [Sample No. 13, (4E)-N-methyl-5-(3-(5-hydroxypyridin)yl)-4-penten-2-amine sesquioxalate] | 12% | – | – | – | 21% | 80% | – | –
